Assay in all cases: KINOMEscan competition binding
One experiment concerns the target ABL1-nonphosphorylated (Homo sapiens, UniProt P00519). As to conditions: read-out: %Inh ABL1-nonphosphorylated.
The next experiment addresses T1, BRSK2 (Homo sapiens, UniProt Q8IWQ3).
T1 sequence (Q8IWQ3 1-736): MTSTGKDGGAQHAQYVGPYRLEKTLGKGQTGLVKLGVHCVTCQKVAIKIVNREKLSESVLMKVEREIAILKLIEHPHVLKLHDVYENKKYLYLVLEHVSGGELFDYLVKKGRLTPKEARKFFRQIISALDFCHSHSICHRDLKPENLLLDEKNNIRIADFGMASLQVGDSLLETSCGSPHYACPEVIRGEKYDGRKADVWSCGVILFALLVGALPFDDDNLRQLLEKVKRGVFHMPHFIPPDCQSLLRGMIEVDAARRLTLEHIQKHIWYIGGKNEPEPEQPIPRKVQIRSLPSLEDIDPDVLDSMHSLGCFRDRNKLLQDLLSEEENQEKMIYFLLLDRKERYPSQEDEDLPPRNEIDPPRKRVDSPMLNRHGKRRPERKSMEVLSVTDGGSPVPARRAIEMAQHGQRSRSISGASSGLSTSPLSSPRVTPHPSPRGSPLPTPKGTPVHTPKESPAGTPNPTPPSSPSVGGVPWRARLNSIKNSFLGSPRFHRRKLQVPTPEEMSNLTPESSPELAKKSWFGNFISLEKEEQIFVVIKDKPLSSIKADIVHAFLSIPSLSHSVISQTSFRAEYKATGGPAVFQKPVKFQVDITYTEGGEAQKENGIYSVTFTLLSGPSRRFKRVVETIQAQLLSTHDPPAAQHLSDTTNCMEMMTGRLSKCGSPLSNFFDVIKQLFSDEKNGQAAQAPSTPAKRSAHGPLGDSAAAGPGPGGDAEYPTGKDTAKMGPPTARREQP
To be noted: read-out: %Inh BRSK2.

For the next experiment, the target named is BUB1 (Homo sapiens, UniProt O43683). As to conditions: read-out: %Inh BUB1.
A further experiment has as its target CAMK1B (Homo sapiens, UniProt Q6P2M8). As to conditions: read-out: %Inh CAMK1B.
The next experiment concerns the target CAMK2D (Homo sapiens, UniProt Q13557). To be noted: read-out: %Inh CAMK2D.
For the next experiment, the target named is CAMKK1 (Homo sapiens, UniProt Q8N5S9). As to conditions: read-out: %Inh CAMKK1.
In the next experiment the target is CDC2L1 (Homo sapiens, UniProt P21127). As to conditions: read-out: %Inh CDC2L1.
Another experiment concerns the target CDK3 (Homo sapiens, UniProt Q00526). To be noted: read-out: %Inh CDK3.
Another experiment has as its target CSNK1D (Homo sapiens, UniProt P48730). To be noted: read-out: %Inh CSNK1D.
Another experiment has as its target EGFR (Homo sapiens, UniProt P00533). To be noted: read-out: %Inh EGFR.
The next experiment deals with EPHA5 (Homo sapiens, UniProt P54756). As to conditions: read-out: %Inh EPHA5.
Another experiment addresses EPHA7 (Homo sapiens, UniProt Q15375). As to conditions: read-out: %Inh EPHA7.
For another experiment, the target named is IGF1R (Homo sapiens, UniProt P08069). To be noted: read-out: %Inh IGF1R.
Another experiment has as its target KIT-autoinhibited (Homo sapiens, UniProt P10721). As to conditions: read-out: %Inh KIT-autoinhibited.
The next experiment addresses LCK (Homo sapiens, UniProt P06239). As to conditions: read-out: %Inh LCK.
Another experiment addresses T2, MAK (Homo sapiens, UniProt P20794).
T2 sequence (P20794 1-623): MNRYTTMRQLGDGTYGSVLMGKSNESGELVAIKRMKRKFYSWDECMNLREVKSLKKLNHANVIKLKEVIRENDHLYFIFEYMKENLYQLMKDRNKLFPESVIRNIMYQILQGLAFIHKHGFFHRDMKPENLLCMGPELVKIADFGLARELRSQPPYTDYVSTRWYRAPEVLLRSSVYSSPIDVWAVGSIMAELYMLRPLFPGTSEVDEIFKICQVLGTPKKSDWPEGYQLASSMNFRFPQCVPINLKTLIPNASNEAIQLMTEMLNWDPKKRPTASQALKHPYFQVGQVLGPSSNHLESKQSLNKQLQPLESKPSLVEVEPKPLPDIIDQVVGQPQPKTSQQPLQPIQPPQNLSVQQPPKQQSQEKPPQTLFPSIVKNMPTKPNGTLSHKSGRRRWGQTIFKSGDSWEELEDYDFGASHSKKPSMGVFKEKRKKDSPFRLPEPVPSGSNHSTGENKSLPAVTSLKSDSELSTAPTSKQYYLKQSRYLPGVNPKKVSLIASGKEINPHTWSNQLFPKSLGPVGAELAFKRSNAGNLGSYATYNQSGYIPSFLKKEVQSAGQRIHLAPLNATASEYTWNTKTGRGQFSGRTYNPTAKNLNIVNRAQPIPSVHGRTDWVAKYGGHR
To be noted: read-out: %Inh MAK.

For a further experiment, the target named is MAP3K1 (Homo sapiens, UniProt Q13233). To be noted: read-out: %Inh MAP3K1.

Each structure is given as a SMILES string.

Sequence of ABL1-nonphosphorylated (P00519 whole entry): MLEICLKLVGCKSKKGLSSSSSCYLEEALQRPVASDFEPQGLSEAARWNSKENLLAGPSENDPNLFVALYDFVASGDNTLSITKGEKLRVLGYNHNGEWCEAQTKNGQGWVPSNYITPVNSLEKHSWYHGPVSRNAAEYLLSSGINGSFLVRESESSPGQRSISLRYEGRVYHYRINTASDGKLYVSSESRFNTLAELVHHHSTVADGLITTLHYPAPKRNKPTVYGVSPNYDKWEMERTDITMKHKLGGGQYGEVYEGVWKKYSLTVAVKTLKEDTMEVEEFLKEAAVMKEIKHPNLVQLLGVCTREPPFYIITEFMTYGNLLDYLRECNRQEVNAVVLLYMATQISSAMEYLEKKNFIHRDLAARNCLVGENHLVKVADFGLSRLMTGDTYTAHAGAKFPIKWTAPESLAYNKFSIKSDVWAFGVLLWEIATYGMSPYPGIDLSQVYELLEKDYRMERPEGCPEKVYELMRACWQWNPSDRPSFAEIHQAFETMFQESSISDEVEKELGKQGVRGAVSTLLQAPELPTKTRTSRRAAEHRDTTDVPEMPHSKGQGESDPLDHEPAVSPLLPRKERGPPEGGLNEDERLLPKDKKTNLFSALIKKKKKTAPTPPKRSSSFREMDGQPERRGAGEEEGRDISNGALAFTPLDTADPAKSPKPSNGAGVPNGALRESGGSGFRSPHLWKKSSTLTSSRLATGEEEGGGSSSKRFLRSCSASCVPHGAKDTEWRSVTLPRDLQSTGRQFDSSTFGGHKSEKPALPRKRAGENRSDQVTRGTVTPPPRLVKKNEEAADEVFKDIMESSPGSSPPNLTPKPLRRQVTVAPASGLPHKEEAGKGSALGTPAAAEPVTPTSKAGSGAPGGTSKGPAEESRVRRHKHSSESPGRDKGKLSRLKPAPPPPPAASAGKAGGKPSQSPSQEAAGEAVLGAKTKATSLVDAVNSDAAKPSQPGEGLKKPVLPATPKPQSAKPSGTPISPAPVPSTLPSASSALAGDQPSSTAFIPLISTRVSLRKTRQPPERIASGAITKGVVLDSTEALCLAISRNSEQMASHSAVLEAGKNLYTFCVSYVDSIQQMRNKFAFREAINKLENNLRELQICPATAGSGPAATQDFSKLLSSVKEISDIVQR
Sequence of CAMK1B (Q6P2M8 whole entry): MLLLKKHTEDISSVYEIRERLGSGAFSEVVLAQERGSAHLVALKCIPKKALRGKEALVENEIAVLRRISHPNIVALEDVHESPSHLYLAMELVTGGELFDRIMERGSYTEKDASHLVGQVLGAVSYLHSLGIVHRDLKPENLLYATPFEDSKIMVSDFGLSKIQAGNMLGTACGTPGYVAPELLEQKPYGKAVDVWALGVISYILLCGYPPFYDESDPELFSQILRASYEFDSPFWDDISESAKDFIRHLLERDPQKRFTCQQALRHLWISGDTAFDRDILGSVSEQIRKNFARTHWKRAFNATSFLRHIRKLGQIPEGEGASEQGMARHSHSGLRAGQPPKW
Sequence of EGFR (P00533 25-1210): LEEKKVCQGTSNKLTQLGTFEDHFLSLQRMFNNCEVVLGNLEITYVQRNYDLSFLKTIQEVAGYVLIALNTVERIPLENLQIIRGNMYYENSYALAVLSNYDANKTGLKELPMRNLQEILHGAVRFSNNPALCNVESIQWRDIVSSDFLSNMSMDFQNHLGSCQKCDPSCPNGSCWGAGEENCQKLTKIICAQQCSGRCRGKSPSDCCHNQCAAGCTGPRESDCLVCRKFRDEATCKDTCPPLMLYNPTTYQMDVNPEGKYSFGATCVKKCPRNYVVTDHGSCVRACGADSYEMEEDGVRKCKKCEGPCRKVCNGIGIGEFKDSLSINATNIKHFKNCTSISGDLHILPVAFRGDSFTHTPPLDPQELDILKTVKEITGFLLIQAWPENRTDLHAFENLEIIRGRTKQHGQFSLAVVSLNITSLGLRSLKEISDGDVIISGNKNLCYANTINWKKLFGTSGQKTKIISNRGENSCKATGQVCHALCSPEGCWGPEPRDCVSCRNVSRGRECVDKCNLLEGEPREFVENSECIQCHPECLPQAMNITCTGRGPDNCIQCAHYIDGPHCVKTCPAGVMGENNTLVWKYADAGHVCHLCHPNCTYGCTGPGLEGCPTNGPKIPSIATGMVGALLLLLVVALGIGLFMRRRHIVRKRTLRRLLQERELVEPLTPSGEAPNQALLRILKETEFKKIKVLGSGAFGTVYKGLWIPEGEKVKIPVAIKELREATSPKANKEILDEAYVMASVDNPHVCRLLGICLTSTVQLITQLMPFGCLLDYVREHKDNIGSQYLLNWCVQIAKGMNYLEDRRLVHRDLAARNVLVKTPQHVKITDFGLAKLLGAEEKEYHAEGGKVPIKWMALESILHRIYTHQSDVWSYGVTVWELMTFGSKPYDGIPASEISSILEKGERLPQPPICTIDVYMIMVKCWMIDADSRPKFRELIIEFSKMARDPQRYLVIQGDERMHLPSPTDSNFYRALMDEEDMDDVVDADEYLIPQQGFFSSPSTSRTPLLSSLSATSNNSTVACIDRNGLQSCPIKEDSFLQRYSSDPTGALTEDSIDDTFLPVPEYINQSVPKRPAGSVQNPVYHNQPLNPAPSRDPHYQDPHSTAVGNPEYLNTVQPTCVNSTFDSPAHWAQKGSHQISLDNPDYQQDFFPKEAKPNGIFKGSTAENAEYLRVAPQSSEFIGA
Sequence of CSNK1D (P48730 whole entry): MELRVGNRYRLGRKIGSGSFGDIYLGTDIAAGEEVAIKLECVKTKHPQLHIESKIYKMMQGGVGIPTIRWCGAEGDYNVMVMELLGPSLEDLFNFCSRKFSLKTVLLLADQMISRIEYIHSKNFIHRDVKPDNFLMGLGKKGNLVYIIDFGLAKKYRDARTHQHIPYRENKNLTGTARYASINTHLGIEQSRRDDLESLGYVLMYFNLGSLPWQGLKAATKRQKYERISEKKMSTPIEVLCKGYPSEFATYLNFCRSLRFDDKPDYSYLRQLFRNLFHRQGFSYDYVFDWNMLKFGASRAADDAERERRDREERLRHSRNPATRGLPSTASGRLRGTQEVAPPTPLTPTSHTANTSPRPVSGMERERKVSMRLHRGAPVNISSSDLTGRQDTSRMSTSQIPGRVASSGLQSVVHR
Sequence of BUB1 (O43683 whole entry): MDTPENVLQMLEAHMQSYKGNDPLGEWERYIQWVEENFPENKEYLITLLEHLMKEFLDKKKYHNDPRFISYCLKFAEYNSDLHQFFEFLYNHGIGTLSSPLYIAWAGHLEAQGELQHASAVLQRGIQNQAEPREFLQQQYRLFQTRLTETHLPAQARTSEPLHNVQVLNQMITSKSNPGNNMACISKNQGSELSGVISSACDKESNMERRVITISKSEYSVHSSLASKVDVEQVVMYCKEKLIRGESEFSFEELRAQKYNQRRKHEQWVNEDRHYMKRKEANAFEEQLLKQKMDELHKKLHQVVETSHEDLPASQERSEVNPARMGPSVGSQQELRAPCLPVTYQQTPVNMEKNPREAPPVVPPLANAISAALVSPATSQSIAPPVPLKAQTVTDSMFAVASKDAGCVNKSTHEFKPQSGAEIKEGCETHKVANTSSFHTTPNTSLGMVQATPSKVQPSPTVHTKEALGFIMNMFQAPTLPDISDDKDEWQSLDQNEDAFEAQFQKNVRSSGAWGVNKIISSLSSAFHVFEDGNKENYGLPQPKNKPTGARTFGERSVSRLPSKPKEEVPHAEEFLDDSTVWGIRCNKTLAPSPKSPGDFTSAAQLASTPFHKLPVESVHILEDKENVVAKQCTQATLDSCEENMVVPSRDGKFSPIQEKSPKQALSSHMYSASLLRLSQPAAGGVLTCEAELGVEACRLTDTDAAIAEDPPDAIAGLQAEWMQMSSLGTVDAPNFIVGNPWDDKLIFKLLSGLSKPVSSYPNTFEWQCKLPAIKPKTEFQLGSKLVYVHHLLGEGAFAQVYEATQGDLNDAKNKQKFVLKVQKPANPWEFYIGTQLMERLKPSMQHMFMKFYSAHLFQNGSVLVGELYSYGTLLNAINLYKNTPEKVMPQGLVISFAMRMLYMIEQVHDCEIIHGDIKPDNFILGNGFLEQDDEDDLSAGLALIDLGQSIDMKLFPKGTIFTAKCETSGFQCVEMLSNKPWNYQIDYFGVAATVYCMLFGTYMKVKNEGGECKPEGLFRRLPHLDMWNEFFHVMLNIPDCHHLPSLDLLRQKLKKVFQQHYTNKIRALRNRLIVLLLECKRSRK
Sequence of CAMK2D (Q13557 whole entry): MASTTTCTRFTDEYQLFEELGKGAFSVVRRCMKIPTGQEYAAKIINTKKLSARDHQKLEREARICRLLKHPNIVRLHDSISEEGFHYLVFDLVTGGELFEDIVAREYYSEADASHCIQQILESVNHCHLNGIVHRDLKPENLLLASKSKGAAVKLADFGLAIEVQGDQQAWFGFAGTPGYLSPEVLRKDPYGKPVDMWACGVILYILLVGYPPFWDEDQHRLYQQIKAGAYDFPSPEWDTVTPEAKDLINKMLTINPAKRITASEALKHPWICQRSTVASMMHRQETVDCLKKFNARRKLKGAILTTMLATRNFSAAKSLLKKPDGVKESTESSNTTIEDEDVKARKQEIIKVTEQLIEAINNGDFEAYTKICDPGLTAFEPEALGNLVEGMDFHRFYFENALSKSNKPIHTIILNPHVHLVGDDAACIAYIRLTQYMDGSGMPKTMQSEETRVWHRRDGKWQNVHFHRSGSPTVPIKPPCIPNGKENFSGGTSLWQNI
Sequence of CDK3 (Q00526 whole entry): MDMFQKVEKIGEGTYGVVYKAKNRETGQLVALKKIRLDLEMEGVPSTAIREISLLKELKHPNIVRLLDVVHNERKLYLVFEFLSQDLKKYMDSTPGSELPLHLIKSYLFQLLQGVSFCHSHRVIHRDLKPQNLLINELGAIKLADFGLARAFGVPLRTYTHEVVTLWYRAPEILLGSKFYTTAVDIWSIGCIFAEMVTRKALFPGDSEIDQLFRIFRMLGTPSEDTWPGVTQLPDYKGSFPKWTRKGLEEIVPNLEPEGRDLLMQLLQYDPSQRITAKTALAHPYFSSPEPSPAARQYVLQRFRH

As to `O=c1cc(N2CCOCC2)nc2n(Cc3cccc(Cl)c3Cl)c(C3CC3)nn12` [UNC10225469A], the inhibition at 1 µM at ABL1-nonphosphorylated is 28%; at BRSK2, 0%; on BUB1, 0%; at CAMK1B, 0%; on CAMK2D, 18%; at CAMKK1, 3%. Moreover, the inhibition at 1 µM on CDC2L1 is 0%; at CDK3 it was 5%; on CSNK1D, 7%; on EGFR, 0%; at EPHA5, 6%; on EPHA7, 0%. The inhibition at 1 µM amounted to 0% on IGF1R; 15% on KIT-autoinhibited; 23% on LCK; 0% on MAK; 14% at MAP3K1.
On to `COc1cccc(OC)c1C(=O)Nc1cccc(-c2nn3ccccc3c2-c2ccnc(Nc3cccc(F)c3)n2)c1` [UNC10225310A], for which the inhibition at 1 µM came to 28% on ABL1-nonphosphorylated; 16% at BRSK2; 11% on BUB1; 0% on CAMK1B; 0% on CAMK2D; 4% at CAMKK1. Further, the inhibition at 1 µM on CDC2L1 was found to be 0%; on CDK3 it was 0%; on CSNK1D, 9%; at EGFR, 91.7%; on EPHA5 it was 11%; on EPHA7 it was 14%. The inhibition at 1 µM on IGF1R was found to be 7%; on KIT-autoinhibited it was 11%; at LCK, 24%; on MAK, 14%; at MAP3K1 it was 0%.
Regarding `CS(=O)(=O)Cc1ccc(Nc2nccc(-c3c(-c4cccc(NC(=O)C5CCCCC5)c4)nn4ncccc34)n2)cc1` [UNC10225159A], the inhibition at 1 µM turned out to be 8% on ABL1-nonphosphorylated; 0% at BRSK2; 98.7% on BUB1; 0% at CAMK1B; 0% at CAMK2D; 0% on CAMKK1. In addition, the inhibition at 1 µM at CDC2L1 came to 0%; on CDK3 it was 0%; at CSNK1D, 0%; on EGFR it was 68%; at EPHA5, 0%; at EPHA7 it was 15%. In addition, the inhibition at 1 µM at IGF1R was found to be 68%; on KIT-autoinhibited, 14%; on LCK, 23%; on MAK it was 0%; on MAP3K1, 30%.
As to `Cc1ccc(NC(=O)Nc2cccc(C(F)(F)F)c2)cc1` [UNC10225187A], the inhibition at 1 µM was 49% on ABL1-nonphosphorylated; 0% at BRSK2; 0% on BUB1; 0% on CAMK1B; 8% at CAMK2D; 9% at CAMKK1. Also, the inhibition at 1 µM on CDC2L1 is 3%; on CDK3, 0%; on CSNK1D it was 0%; on EGFR it was 0%; at EPHA5, 0%; at EPHA7, 2%. Also, the inhibition at 1 µM on IGF1R is 0%; at KIT-autoinhibited, 3%; at LCK it was 6%; at MAK it was 0%; on MAP3K1, 0%.
With `Cn1cc(-c2cnc(N)c3c(-c4ccc5c(c4)CCN5C(=O)Cc4ccccc4)csc23)cn1` [UNC10225012A], the inhibition at 1 µM at ABL1-nonphosphorylated was found to be 99.7%; at BRSK2, 7%; on BUB1 it was 0%; at CAMK1B, 0%; at CAMK2D it was 0%; on CAMKK1, 11%. The inhibition at 1 µM on CDC2L1 came out at 4%; on CDK3, 1%; on CSNK1D it was 0%; at EGFR it was 3%; on EPHA5, 0%; on EPHA7 it was 6%. The inhibition at 1 µM worked out at 0% at IGF1R; 32% on KIT-autoinhibited; 93.8% on LCK; 0% on MAK; 4% on MAP3K1.

Values taken from paper PMC5540273, “Progress towards a public chemogenomic set for protein kinases and a call for contributions” (PLoS ONE, 2017).
